One experiment has as its target α4β1 (Homo sapiens, UniProt P05556+P13612). The experiment is described as follows: α4β1 integrin inhibition, IC50. The experiment is classed as binding. Particulars: read-out: α4β1 IC50.
The target of the next experiment is T1, α4β7 (Homo sapiens, UniProt P13612+P26010).
T1 sequence (P13612 34-1032): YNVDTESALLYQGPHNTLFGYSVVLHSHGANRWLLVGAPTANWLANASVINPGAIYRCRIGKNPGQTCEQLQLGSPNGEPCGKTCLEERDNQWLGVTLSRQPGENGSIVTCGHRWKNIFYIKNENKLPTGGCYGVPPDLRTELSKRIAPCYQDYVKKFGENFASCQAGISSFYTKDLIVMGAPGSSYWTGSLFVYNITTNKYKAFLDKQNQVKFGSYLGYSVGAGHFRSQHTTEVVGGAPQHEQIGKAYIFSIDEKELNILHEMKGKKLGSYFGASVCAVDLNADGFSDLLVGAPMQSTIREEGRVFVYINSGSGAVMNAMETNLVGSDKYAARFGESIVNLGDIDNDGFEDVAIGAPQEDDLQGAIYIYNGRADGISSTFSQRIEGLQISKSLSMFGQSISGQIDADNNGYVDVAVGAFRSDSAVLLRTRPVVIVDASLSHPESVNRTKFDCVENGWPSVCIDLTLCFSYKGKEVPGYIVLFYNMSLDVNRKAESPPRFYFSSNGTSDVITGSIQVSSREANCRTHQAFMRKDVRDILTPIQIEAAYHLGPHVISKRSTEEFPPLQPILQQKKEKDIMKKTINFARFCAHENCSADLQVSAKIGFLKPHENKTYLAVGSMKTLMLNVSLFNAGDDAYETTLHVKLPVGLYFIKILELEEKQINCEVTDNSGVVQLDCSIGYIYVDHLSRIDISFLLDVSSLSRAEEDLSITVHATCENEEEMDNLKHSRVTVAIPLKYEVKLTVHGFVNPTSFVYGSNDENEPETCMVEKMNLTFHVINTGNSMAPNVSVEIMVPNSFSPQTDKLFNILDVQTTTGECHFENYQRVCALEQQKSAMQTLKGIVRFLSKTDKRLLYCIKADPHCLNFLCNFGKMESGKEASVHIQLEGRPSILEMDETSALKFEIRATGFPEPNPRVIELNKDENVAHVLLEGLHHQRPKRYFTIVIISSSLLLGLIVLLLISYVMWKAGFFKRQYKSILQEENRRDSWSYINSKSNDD
T1 sequence (P26010 20-798): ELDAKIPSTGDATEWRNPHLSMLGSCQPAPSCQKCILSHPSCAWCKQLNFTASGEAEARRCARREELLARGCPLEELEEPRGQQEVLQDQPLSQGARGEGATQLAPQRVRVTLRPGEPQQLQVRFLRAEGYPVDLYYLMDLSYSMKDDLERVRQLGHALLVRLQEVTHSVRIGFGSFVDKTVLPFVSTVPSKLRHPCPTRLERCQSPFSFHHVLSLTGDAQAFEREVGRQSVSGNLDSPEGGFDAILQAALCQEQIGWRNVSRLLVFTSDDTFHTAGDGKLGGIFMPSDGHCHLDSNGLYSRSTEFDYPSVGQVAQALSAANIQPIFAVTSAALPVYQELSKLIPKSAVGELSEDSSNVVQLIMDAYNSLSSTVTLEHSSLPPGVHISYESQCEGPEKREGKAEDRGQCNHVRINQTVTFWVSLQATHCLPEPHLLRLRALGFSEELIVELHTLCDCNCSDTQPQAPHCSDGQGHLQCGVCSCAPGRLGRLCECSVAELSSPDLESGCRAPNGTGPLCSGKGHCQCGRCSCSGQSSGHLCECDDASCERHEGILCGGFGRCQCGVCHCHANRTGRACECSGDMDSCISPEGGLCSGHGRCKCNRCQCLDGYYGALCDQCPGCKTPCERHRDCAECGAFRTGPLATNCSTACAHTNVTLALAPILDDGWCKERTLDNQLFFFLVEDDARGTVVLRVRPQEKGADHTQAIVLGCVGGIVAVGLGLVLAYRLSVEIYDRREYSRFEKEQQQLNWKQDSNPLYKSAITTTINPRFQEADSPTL
Put plainly: α4β7 integrin inhibition, IC50. Format: binding.

A value given as a limit tells only on which side of the number the result lay.

This passage reports IC50 results from patent US10875875B2, “Propionic acid derivatives and methods of use thereof” (Aviara Pharmaceuticals, Inc., priority 2017, dated 2020).

Sequence of α4β1 (P05556 21-798, one chain of several): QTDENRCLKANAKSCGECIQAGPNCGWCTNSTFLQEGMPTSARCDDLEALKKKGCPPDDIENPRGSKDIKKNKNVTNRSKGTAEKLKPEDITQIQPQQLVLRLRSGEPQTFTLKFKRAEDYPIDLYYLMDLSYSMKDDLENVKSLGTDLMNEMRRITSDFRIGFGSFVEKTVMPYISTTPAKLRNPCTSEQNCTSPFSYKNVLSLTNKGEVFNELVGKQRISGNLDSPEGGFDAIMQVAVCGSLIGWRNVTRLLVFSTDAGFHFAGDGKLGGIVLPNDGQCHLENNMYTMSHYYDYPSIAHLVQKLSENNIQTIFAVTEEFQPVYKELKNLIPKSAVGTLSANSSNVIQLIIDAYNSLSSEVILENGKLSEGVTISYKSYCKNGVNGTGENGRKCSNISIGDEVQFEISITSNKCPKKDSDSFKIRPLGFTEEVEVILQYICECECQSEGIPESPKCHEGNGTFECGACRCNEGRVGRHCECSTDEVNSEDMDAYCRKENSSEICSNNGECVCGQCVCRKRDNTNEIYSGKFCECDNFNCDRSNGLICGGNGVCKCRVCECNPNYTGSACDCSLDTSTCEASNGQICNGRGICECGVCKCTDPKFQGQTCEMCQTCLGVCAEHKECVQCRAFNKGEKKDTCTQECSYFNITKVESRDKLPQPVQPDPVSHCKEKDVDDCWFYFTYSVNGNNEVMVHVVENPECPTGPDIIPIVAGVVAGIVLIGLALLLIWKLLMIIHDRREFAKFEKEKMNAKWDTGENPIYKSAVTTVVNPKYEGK

For the compound `Cc1cccc(C)c1-c1cc(F)cc([C@H](CC(=O)O)NC(=O)Nc2c(O)cc(C)n(C)c2=O)c1` [1-642, sodium (S)-3-(3-(1,6-dimethyl-4-oxido-2-oxo-1,2-dihydropyridin-3-yl)ureido)-3-(5-fluoro-2′,6′-dimethylbiphenyl-3-yl)propanoate], the IC50 at α4β1 and against α4β7 was less than 20 nM each time.
With `Cn1ccc(O)c(NC(=O)N[C@@H](CC(=O)O)c2cccc(-c3ccc(F)cc3F)c2)c1=O` [1-488, sodium (S)-3-(2′,4′-difluorobiphenyl-3-yl)-3-(3-(1-methyl-4-oxido-2-oxo-1,2-dihydropyridin-3-yl)ureido)propanoate], the results for the IC50 on α4β1 and against α4β7 were less than 20 nM and more than 200 nM, respectively.
For `Cc1cc(-c2cccc(OC(F)(F)F)c2)cc([C@H](CC(=O)O)NC(=O)Nc2c(O)ccn(C)c2=O)c1` [1-572, sodium (S)-3-(5-methyl-3′-(trifluoromethoxy)biphenyl-3-yl)-3-(3-(1-methyl-4-oxido-2-oxo-1,2-dihydropyridin-3-yl)ureido)propanoate], in that order: less than 20 nM and more than 200 nM.
For `Cc1cccc(C)c1-c1cc([C@H](CC(=O)O)NC(=O)Nc2c(O)ccn(C)c2=O)ccc1F` [1-561, sodium (S)-3-(6-fluoro-2′,6′-dimethylbiphenyl-3-yl)-3-(3-(1-methyl-4-oxido-2-oxo-1,2-dihydropyridin-3-yl)ureido)propanoate], in that order: less than 20 nM and less than 20 nM.
The corresponding values for `Cc1cccc(C)c1-c1cccc([C@H](CC(=O)O)NC(=O)Nc2c(O)cc(C)n(C)c2=O)c1` [1-550, sodium (S)-3-(3-(1,6-dimethyl-4-oxido-2-oxo-1,2-dihydropyridin-3-yl)ureido)-3-(2′,6′-dimethylbiphenyl-3-yl)propanoate] are less than 20 nM and less than 200 nM.
Consider `COc1cc(-c2c(C)cccc2C)cc([C@H](CC(=O)O)NC(=O)Nc2c(O)cc(C)n(C)c2=O)c1` [1-580, sodium (S)-3-(3-(1,6-dimethyl-4-oxido-2-oxo-1,2-dihydropyridin-3-yl)ureido)-3-(5-methoxy-2′,6′-dimethylbiphenyl-3-yl)propanoate], for which the IC50 on α4β1 and at α4β7 was less than 20 nM in each case.
Consider `Cc1cn(C)c(=O)c(NC(=O)N[C@@H](CC(=O)O)c2cccc(-c3c(C)cccc3C)c2)c1O` [1-470, sodium (S)-3-(3-(1,5-dimethyl-4-oxido-2-oxo-1,2-dihydropyridin-3-yl)ureido)-3-(2′,6′-dimethylbiphenyl-3-yl)propanoate], for which the figures for the IC50 at α4β1 and at α4β7 were less than 20 nM and less than 200 nM, respectively.
Turning to `Cc1cc(O)c(NC(=O)N[C@@H](CC(=O)O)c2cccc(-c3ccc(F)cc3F)c2)c(=O)n1C` [1-487, sodium (S)-3-(2′,4′-difluorobiphenyl-3-yl)-3-(3-(1,6-dimethyl-4-oxido-2-oxo-1,2-dihydropyridin-3-yl)ureido)propanoate], the IC50 (in general, the concentration needed to halve the response being measured) is less than 20 nM at α4β1 and more than 200 nM at α4β7.
Turning to `COc1cccc(-c2cc([C@H](CC(=O)O)NC(=O)Nc3c(O)c(C)cn(C)c3=O)ccc2OC)c1` [1-527, sodium (S)-3-(3′,6-dimethoxybiphenyl-3-yl)-3-(3-(1,5-dimethyl-4-oxido-2-oxo-1,2-dihydropyridin-3-yl)ureido)propanoate], the IC50 at α4β1 is less than 20 nM; against α4β7, more than 200 nM.
As to `O=C(O)C[C@H](NC(=O)Nc1c(O)cc2n(c1=O)CCC2)c1cccc(-c2ccc(F)cc2F)c1` [1-629, sodium (S)-3-(2′,4′-difluorobiphenyl-3-yl)-3-(3-(7-oxido-5-oxo-1,2,3,5-tetrahydroindolizin-6-yl)ureido)propanoate], the figures for the half-inhibitory concentration (IC50) on α4β1 and on α4β7 were less than 20 nM and more than 200 nM, respectively.
For `COc1cc(-c2c(C)cccc2C)cc([C@H](CC(=O)O)NC(=O)Nc2c(O)ccn(C)c2=O)c1` [1-579, sodium (S)-3-(5-methoxy-2′,6′-dimethylbiphenyl-3-yl)-3-(3-(1-methyl-4-oxido-2-oxo-1,2-dihydropyridin-3-yl)ureido)propanoate], in that order: less than 20 nM and less than 20 nM.
The corresponding values for `COc1ccc([C@H](CC(=O)O)NC(=O)Nc2c(O)ccn(C)c2=O)cc1-c1c(C)cccc1C` [1-533, sodium (S)-3-(6-methoxy-2′,6′-dimethylbiphenyl-3-yl)-3-(3-(1-methyl-4-oxido-2-oxo-1,2-dihydropyridin-3-yl)ureido)propanoate] are less than 20 nM and less than 200 nM.
Regarding `Cc1cccc(C)c1-c1ccc(F)c([C@H](CC(=O)O)NC(=O)Nc2c(O)ccn(C)c2=O)c1` [1-590, sodium (S)-3-(4-fluoro-2′,6′-dimethylbiphenyl-3-yl)-3-(3-(1-methyl-4-oxido-2-oxo-1,2-dihydropyridin-3-yl)ureido)propanoate], the half-inhibitory concentration (IC50) at α4β1 and against α4β7 was less than 20 nM throughout.
In the case of `Cc1noc(C)c1-c1cccc([C@H](CC(=O)O)NC(=O)Nc2c(O)ccn(C)c2=O)c1` [1-560, sodium (S)-3-(3-(3,5-dimethylisoxazol-4-yl)phenyl)-3-(3-(1-methyl-4-oxido-2-oxo-1,2-dihydropyridin-3-yl)ureido)propanoate], the IC50 at α4β1 was less than 20 nM; on α4β7 it was more than 200 nM.
Consider `COc1cccc(-c2cc(C)cc([C@H](CC(=O)O)NC(=O)Nc3c(O)ccn(C)c3=O)c2)c1` [1-582, sodium (S)-3-(3′-methoxy-5-methylbiphenyl-3-yl)-3-(3-(1-methyl-4-oxido-2-oxo-1,2-dihydropyridin-3-yl)ureido)propanoate], for which the IC50 at α4β1 is less than 20 nM; against α4β7 it was less than 200 nM.
For `Cn1ccc(O)c(NC(=O)N[C@@H](CC(=O)O)c2cccc(-c3c(Cl)cccc3Cl)c2)c1=O` [1-537, sodium (S)-3-(2′,6′-dichlorobiphenyl-3-yl)-3-(3-(1-methyl-4-oxido-2-oxo-1,2-dihydropyridin-3-yl)ureido)propanoate], in that order: less than 20 nM and less than 200 nM.
Consider `Cn1ccc(O)c(NC(=O)N[C@@H](CC(=O)O)c2cccc(-c3ccc(Cl)s3)c2)c1=O` [1-538, sodium (S)-3-(3-(5-chlorothiophen-2-yl)phenyl)-3-(3-(1-methyl-4-oxido-2-oxo-1,2-dihydropyridin-3-yl)ureido)propanoate], for which, on α4β1, the half-inhibitory concentration (IC50) was less than 20 nM.
Turning to `Cc1cn(C)c(=O)c(NC(=O)NC(CC(=O)O)c2cccc(-c3cccc(Cl)c3Cl)c2)c1O` (stereo not shown) [1-485, sodium 3-(2′,3′-dichlorobiphenyl-3-yl)-3-(3-(1,5-dimethyl-4-oxido-2-oxo-1,2-dihydropyridin-3-yl)ureido)propanoate], at α4β1, the IC50 is less than 200 nM.
For the compound `Cc1cn(C)c(=O)c(NC(=O)N[C@@H](CC(=O)O)c2cccc(-c3ccc(F)cc3F)c2)c1O` [1-446, sodium (S)-3-(2′,4′-difluorobiphenyl-3-yl)-3-(3-(1,5-dimethyl-4-oxido-2-oxo-1,2-dihydropyridin-3-yl)ureido)propanoate], at α4β1, the 50% inhibitory concentration (IC50) is less than 20 nM.
Same read-out and setting: in the case of `CCn1cc(C)c(O)c(NC(=O)N[C@@H](CC(=O)O)c2cccc(-c3ccccc3C)c2)c1=O` [1-443, sodium (S)-3-(3-(1-ethyl-5-methyl-4-oxido-2-oxo-1,2-dihydropyridin-3-yl)ureido)-3-(2′-methylbiphenyl-3-yl)propanoate] it was less than 200 nM; in that of `COc1ccc([C@H](CC(=O)O)NC(=O)Nc2c(O)ccn(C)c2=O)cc1-c1ccc(F)cc1F` [1-519, sodium (S)-3-(2′,4′-difluoro-6-methoxybiphenyl-3-yl)-3-(3-(1-methyl-4-oxido-2-oxo-1,2-dihydropyridin-3-yl)ureido)propanoate], less than 20 nM.
